# Read-outs that look alike come from different tables or passages of the source.
# Tests used:
# [1] = target: alpha-amylase (Bacillus licheniformis, UniProt P06278); settings: for (-Δ G°) stabilization free energy, R T ln F: 95° C. (T = 368K); for t 1/2: salt added to 1.22 M, diluted 1×100
# [2] = tested on: alpha-amylase (Taka-Therm L-170); settings: pH 5.5
# Procedure: In a typical run, 70 lbs. of corn starch was suspended in 59 liters of water and the pH adjusted to 5.0 using acetic acid. […] After gelantinization, the starch was flashed into a temperature regulated vessel maintained at 95° C. for continued liquefaction for 2 hours. In another experiment, the liquefaction of starch was carried out at pH 6.3-6.5 (pH adjusted using sodium hydroxide) in the presence of 50 ppm added calcium.
# Calcium chloride was added to a level of 25 ppm (as Ca^++) and the pH adjusted to 5.5 using 10% sodium hydroxide.
# [3] = tested on: alpha-amylase; experiment: Comparative thermal stability of alpha-amylase with different anions at 90° C.; type: biochemical; settings: percent residual activity versus time at 90° C., FIG. 2
# Procedure: A comparative study was conducted in which the stability of alpha-amylase stabilized with acetate was compared with that containing anions known to have been added to commercially available alpha-amylase solutions. The activity of the various anion containing enzyme solutions was determined as previously described and the percent residual activity plotted as a function of time at 90° C. The results of this study are graphically represented in FIG. 2. The stabilizing effects of the different anions against thermal inactivation of the enzyme followed this order: citrate<sulphate<chloride<acetate.
# alpha-amylase (Bacillus licheniformis, UniProt P06278), sequence (P06278 30-512): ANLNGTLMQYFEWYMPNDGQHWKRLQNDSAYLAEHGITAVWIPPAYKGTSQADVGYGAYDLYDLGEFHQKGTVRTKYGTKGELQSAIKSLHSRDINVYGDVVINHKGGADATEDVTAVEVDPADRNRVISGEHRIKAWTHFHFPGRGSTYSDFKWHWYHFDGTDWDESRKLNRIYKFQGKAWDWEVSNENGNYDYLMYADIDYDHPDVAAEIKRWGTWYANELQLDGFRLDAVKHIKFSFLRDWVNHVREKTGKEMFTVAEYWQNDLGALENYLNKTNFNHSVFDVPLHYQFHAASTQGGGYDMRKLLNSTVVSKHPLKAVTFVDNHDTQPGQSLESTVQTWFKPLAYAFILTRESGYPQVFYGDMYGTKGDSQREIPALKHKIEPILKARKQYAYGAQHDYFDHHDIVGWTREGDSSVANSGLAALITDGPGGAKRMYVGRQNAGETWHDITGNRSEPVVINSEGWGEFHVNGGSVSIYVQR
smiles,measurement,setting,value
"CCCC(=O)[O-].[Na+] [CH3 CH2 CH2 COONa, sodium butyrate]","(-Δ G°) stabilization free energy, R T ln F",[1]; pH 5.8,1.5 K cal/mole
same,order of thermal stabilization of the enzyme,"[1]; 95° C., pH 5.8, aliphatic monocarboxylic acid sodium salts, FIG. 1",formate<acetate<propionate<butyrate
same,t 1/2,"[1]; 95° C., pH 5.8",13.3 min
same,additional stabilization attributed to the butyl group,"[1]; relative to formate, 95° C., pH 5.8",about 0.6 K Cal/mol.
"O=C(O)C(c1ccccc1)c1ccccc1 [Diphenylacetic, diphenylacetic acid]","Half-Life 95° C., pH 5.8",[1],15 minutes
same,"(-Δ G°) stabilization free energy, R T ln F",[1]; pH 5.8,1.5 K cal/mole
same,relative stabilizing effect in words,"[1]; 95° C., pH 5.8, comparison among acids tested",the most
same,t 1/2,"[1]; 95° C., pH 5.8",15.0 min
"CC(=O)O [Na Acetate, Sodium acetate]",DE Progression,"[2]; Starch slurry containing 0.7 mM of sodium acetate + 25 ppm of added Ca^++, 1/2 hr",4.15
same,DE Progression,"[2]; Starch slurry containing 0.7 mM of sodium acetate + 25 ppm of added Ca^++, 11/2 hr",8.87
same,DE Progression,"[2]; Starch slurry containing 0.7 mM of sodium acetate + 25 ppm of added Ca^++, 1 hr",6.11
same,DE Progression,"[2]; Starch slurry containing 0.7 mM of sodium acetate + 25 ppm of added Ca^++, 2 hr",10.25
same,DE Progression,"[2]; Starch slurry containing 0.01 M sodium acetate and 25 ppm of added Ca^++, 1/2 hr",5.53
same,DE Progression,"[2]; Starch slurry containing 0.01 M sodium acetate and 25 ppm of added Ca^++, 11/2 hr",10.82
same,DE Progression,"[2]; Starch slurry containing 0.01 M sodium acetate and 25 ppm of added Ca^++, 1 hr",8.64
same,DE Progression,"[2]; Starch slurry containing 0.01 M sodium acetate and 25 ppm of added Ca^++, 2 hr",13.01
same,order of stabilizing effects of anions against thermal inactivation of the enzyme,[3],citrate<sulphate<chloride<acetate
"O=C(O)Cc1ccccc1 [Phenylacetic acid, phenylacetic acid]","Half-Life 95° C., pH 5.8",[1],7 minutes
same,"(-Δ G°) stabilization free energy, R T ln F",[1]; pH 5.8,1.0 K cal/mole
same,t 1/2,"[1]; 95° C., pH 5.8",7.0 min
Cl [chloride],order of stabilizing effects of anions against thermal inactivation of the enzyme,[3],citrate<sulphate<chloride<acetate
O=C(O)CC(O)(CC(=O)O)C(=O)O [citrate],order of stabilizing effects of anions against thermal inactivation of the enzyme,[3],citrate<sulphate<chloride<acetate
O=S(=O)(O)O [sulphate],order of stabilizing effects of anions against thermal inactivation of the enzyme,[3],citrate<sulphate<chloride<acetate
